We go through 1 compound from patent publication US8685929B2, “Detecting CYP24 expression level as a marker for predisposition to cancer” (The Regents of the University of California, priority 1999, dated 2014).

The subject of assay [1] is CYP24 gene expression in MCF7 breast cancer cells. Put plainly: RT-PCR of CYP24 gene expression in MCF7 breast cancer cells with induction by 1,25-dihydroxyvitamin D3. In kind it is cell-based, human. The note with it: MCF7 cells incubated with 10^-8M 1,25-dihydroxyvitamin D3 vs vehicle control (ethanol); FIG. 3A. The protocol: (§1) FIG. 3 illustrates expression of CYP24, VDR and ZNF217 genes in human breast cancer cell lines and tumors with and without induction by 1,25-dihydroxyvitamin D3 evaluated by RT-PCR. (a) Time course of induction of CYP24 gene expression in MCF7 breast cancer cells incubated with 10^−8M 1,25-dihydroxyvitamin D3 and vehicle control (ethanol, EtOH). (b) Gene expression in two breast cancer tumors, S21 and S59. (c) Gene expression in the BT474 cell line. Cells were incubated with 10^−8M 1,25-dihydroxyvitamin D3, as described in (a).
(§2) Previously, CYP24 had been discounted as a candidate oncogene because it was not found to be transcribed in the breast cancer cell line, BT474 (Collins et al. (1998) Proc. Natl. Acad. Sci. USA 95: 8703-8708). However, re-evaluation of expression of CYP24 in cell lines and tumors was warranted because of its position at the peak of the copy number profile and because of the existing knowledge of its function. Therefore we examined expression levels of CYP24 and the vitamin D receptor (VDR), which controls CYP24 expression by RT-PCR using the primers listed in Table 1. […] Furthermore, expression of CYP24 and VDR was detected in two breast tumors S21 and S59 (FIG. 3B). […] Only low level expression of VDR was found in this cell line, most likely accounting for the failure to detect expression of CYP24 in BT474 without addition of 1,25-dihydroxyvitamin-D3. […]

In assay [2] the test system is CYP24 gene expression in BT474 cell line. Put plainly: RT-PCR of CYP24 gene expression in the BT474 cell line with induction by 1,25-dihydroxyvitamin D3. In kind it is cell-based, human. The note with it: BT474 cells, 10^-8M 1,25-dihydroxyvitamin D3 added to the culture medium; FIG. 3C. As to the method: as §1, §2

Turning to `C=C1/C(=C\C=C2/CCC[C@]3(C)[C@@H]([C@H](C)CCCC(C)(C)O)CC[C@@H]23)C[C@@H](O)C[C@@H]1O` [1,25-dihydroxyvitamin-D3], the “expression of CYP24 (RT-PCR)” value is reported as “higher levels of expression of CYP24 were induced” in assay [1] and “CYP24 expression was not detected without addition of 1,25-dihydroxyvitamin-D3” in assay [2].
